Measured values as given in patent EP0371730A1, “Dopamine-B-Hydroxylase inhibitors” (SMITHKLINE BEECHAM CORPORATION, priority 1988, dated 1990).

Experiments:
[1] = test system: spontaneously hypertensive rats; experiment: mean arterial blood pressure in spontaneously hypertensive rats; assay type: in vivo; details: 50 mg/kg intraperitoneally, compared to vehicle-treated controls
Procedure: Further, spontaneously hypertensive rats were treated with 1-(2-imidazolylmethyl)-1,3-dihydro-2H-imidazole-2-thione at a dose of 50 mg/kg intraperitoneally, and mean arterial blood pressure was monitored for 250 minutes using indwelling cannulae in the tail arteries. […] The maximal blood pressure reduction was approximately 40 mmHg.

[2] = see Teresawa et al.; cited from earlier work
DBH = molecular target: T1, DBH (Homo sapiens, UniProt P09172); details: as reported by Runti et al.; cited from earlier work
T1 sequence (P09172 1-617): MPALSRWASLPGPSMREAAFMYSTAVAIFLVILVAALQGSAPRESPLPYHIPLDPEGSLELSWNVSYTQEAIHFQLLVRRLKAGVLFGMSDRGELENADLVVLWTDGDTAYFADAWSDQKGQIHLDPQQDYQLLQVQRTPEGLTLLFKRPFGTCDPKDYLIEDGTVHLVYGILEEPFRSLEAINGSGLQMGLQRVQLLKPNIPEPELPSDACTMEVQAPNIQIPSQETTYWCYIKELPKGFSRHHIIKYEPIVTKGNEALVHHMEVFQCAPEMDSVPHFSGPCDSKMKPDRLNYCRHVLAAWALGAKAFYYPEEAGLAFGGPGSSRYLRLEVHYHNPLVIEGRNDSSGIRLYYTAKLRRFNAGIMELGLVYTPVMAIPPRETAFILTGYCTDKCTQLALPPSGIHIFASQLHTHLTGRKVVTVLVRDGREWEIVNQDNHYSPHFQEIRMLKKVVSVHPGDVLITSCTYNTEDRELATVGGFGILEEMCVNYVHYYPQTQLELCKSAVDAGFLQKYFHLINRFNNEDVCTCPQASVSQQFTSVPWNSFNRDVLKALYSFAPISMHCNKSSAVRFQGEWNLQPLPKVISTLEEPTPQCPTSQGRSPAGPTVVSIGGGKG

S=c1[nH]ccn1Cc1ncc[nH]1 [1-(2-Imidazolylmethyl)-1,3-dihydro-2H-imidazole-2-thione]
time to significant blood pressure reductions following treatment [1]: ≤ 30 min
maximal blood pressure reduction ([1]; mean arterial blood pressure monitored for 250 minutes): approximately 40 mmHg

CCCCc1ccc(C(=O)O)nc1 [Fusaric acid]
hepatotoxicity [2]: hepatotoxic

phenylpicolinic acid
inhibitory activity relative to fusaric acid (DBH): twice the inhibitory activity of fusaric acid
